Measurements from PMC12920416, “Preclinical development of [^18F]TAAR1-2203 as a PET radioligand for imaging TAAR1 expression and receptor occupancy” (European Journal of Nuclear Medicine and Molecular Imaging, 2025).

Legend:
TAAR1 [1] = target: T1, TAAR1 (Mus musculus, UniProt Q923Y8); experiment: Dynamic PET imaging, baseline vs blockade; assay type: in vivo, CD1 mice
T1 construct: peripheral organs that express endogenous TAAR1; tissue Charles River (wild-type); F. Hoffmann-La Roche Ltd. (TAAR1 knock-out and matched controls); host or cells: mouse pancreas, kidney, liver, brain
Experimental: (§1) Dynamic PET imaging was performed for 60 min in female C57BL/6 mice, as well as in TAAR1 knock-out mice and respective controls, under 1–2% (v/v) isoflurane anaesthesia as previously reported. [^18F]TAAR1-2203 (1.5 MBq in 100 µL saline) was administered via tail vein injection. For blocking studies, TAAR1 agonist RO5425754 (4 mg/kg) was injected 5 min prior to radiotracer administration. Dynamic PET scans were acquired using a G8 PET/CT scanner (Sofie Biosciences, Culver, CA, USA) and analyzed with PMOD software (PMOD Technologies Ltd., Zurich, Switzerland). Radioactivity was decay-corrected and expressed as standardized uptake values (SUVs), normalized to body weight and injected dose.

TAAR1 [2] = target: T1, TAAR1; experiment: Dynamic PET imaging, TAAR1 knockout vs wild-type mice; assay type: in vivo
Experimental: as §1

[3] = Distribution coefficient (LogD), shake-flask method; assay type: physicochemical; conditions: n-octanol/PBS pH 7.4, n = 3, read-out: LogD7.4
Experimental: The distribution coefficient (LogD) was determined using the shake-flask method. Briefly, 500 µCi (18.5 MBq) of [^18F]TAAR1-2203 was added to a presaturated mixture of PBS (1.3 mL, pH 7.4) and n-octanol (3 mL). The mixture was vortexed for 5 min, after which 500 µL aliquots (n = 3) were transferred into separate tubes and centrifuged at 3500–4000 rpm for 5 min. Following centrifugation, 50 µL of the n-octanol phase and 500 µL of the aqueous phase were carefully sampled and transferred into pre-weighed gamma counter tubes. After weighing, radioactivity in each phase was quantified using a Packard Cobra 5002/5003 gamma counter. The LogD value at pH 7.4 was calculated based on the measured weights and the radioactivity distribution between the organic and aqueous phases, as previously reported.

TAAR1 [4] = target: T2, TAAR1 (Rattus norvegicus, UniProt Q923Y9); experiment: In vitro autoradiography, rat pancreas and kidney sections; assay type: binding, Sprague Dawley rats; conditions: tracer 5–8 nM; blockade with RO5333943 or RO5425754 at 10 µM
T2 construct: peripheral organs that express endogenous TAAR1; tissue Charles River; host or cells: rat pancreas, kidney
Experimental: In vitro autoradiography experiments with [^18F]TAAR1-2203 were conducted on mouse and rat pancreas, kidney and brain tissue sections, respectively. Tissue Sect. (20 μm) were thawed on ice for 10 min and preincubated in assay buffer (50 mM Tris, pH 7.4) for 10 min. Subsequently, sections were incubated with [^18F]TAAR1-2203 for 40 min at ambient temperature. For blocking studies, structurally distinct TAAR1 agonists, RO5333943 or RO5425754, were added in excess to the assay buffer at a final concentration of 10 µM. After incubation, sections were washed in assay buffer for 2 min on ice and dipped briefly in water (2 × 5 s), followed by drying and exposure to a phosphor imager plate for 60 min. Imager plates were scanned on an Amersham Typhoon analyzer system, and images were analyzed using ImageQuant TL 8.1, as previously reported.

[5] = Serum stability, mouse serum; assay type: in vitro ADME; conditions: 60 min, 37 °C
Experimental: (§2) The stability of [^18F]TAAR1-2203 was assessed in mouse, rat, NHP, and human serum. Aliquots (400 µL) of serum were preincubated at 37 °C for 5 min, followed by the addition of [^18F]TAAR1-2203 (20 µL, 300 µCi/11.1 MBq). After 60 min, 200 µL of each sample was collected, quenched with ice-cold MeCN (200 µL), centrifuged at 10,000 g for 5 min, and analyzed by radio-HPLC (XBridge C18 column, 3.5 μm, 4.6 mm × 150 mm; CH3CN/H2O 35:65 with 0.1% TEA; flow rate 1.0 mL/min). Experiments in PBS served as negative controls, and benfluorex hydrochloride was used as a positive control.

[6] = Serum stability, NHP serum; assay type: in vitro ADME, non-human primate; conditions: 60 min, 37 °C
Experimental: as §2

[7] = Serum stability, rat serum; assay type: in vitro ADME; conditions: 60 min, 37 °C
Experimental: as §2

[8] = Microsomal stability, NHP liver microsomes; assay type: in vitro ADME, non-human primate; conditions: after 60 min, 37 °C
Experimental: (§3) Microsomal stability of [^18F]TAAR1-2203 was evaluated using mouse, rat, NHP, and human liver microsomes. Potassium phosphate buffer (340 µL, 0.5 M, pH 7.4) was combined with NADPH regenerating solution (40 µL, 10 mM). Radiotracer solution (10 µL, 150 µCi, 5.5 MBq) was added, and the mixture was preincubated at 37 °C for 5 min. Liver microsomes (20 µL) were subsequently added. Incubations were carried out at 37 °C with gentle shaking. At 30 and 60 min, 200 µL aliquots were quenched with ice-cold MeCN (200 µL), centrifuged at 10,000 g for 5 min, and analyzed using an AR-2000 radio-TLC imaging scanner (Eckert & Ziegler).

[9] = Stability in formulation, saline and phosphate buffer; assay type: physicochemical; conditions: up to 4 h at ambient temperature
Experimental: […] Analytical HPLC was performed using an XBridge C18 column (3.5 μm, 4.6 mm × 150 mm) under isocratic conditions with a mobile phase of MeCN/H2O (35:65, v/v) containing 0.1% triethylamine (TEA) at a flow rate of 1.0 mL/min.

[10] = Ex vivo radiometabolite analysis; assay type: in vivo, CD1 mice; conditions: 30 min post-injection, n = 3
Experimental: Female CD1 mice (20 weeks old, n = 3) were injected with [^18F]TAAR1-2203 (100 µCi, 3.7 MBq) and sacrificed 30 min post-injection. Brain, pancreas, and plasma samples were collected. Organs were homogenized in ice-cold acetonitrile (CH3CN). Plasma was obtained by centrifugation at 1400 rpm for 5 min at 4 °C, and proteins were precipitated with repeated CH3CN extraction until clear supernatants were obtained. Analytical samples were spiked with non-radioactive TAAR1-2203 and analyzed by radio-HPLC (XBridge C18 column; CH3CN/H₂O 35:65, with 0.1% TEA; flow rate 1.0 mL/min). Parent tracer fractions were determined as the percentage of intact [^18F]TAAR1-2203 relative to total detected radioactivity.

[11] = Microsomal stability, rat liver microsomes; assay type: in vitro ADME; conditions: after 60 min, 37 °C, printed as rodent microsomes
Experimental: as §3

[12] = Serum stability, human serum; assay type: in vitro ADME; conditions: 60 min, 37 °C
Experimental: as §2

[13] = PET, blockade with RO5425754 4 mg/kg

T1 sequence (Q923Y8 whole entry): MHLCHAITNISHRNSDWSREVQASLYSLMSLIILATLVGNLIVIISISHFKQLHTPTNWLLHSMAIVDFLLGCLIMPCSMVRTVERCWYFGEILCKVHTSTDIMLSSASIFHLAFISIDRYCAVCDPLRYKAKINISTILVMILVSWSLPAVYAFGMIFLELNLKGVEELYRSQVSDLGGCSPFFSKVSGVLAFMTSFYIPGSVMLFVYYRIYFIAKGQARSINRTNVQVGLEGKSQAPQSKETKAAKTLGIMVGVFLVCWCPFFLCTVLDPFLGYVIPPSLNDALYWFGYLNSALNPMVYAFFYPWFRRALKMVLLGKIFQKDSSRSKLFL
T2 sequence (Q923Y9 whole entry): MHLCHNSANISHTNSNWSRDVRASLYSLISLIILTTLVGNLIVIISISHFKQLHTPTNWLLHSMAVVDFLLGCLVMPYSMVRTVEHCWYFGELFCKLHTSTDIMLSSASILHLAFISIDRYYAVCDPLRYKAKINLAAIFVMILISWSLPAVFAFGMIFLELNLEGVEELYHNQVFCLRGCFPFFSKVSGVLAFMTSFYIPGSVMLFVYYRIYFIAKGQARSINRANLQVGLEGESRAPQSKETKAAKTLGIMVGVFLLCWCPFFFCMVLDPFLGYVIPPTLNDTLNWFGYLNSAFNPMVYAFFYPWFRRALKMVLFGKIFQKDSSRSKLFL

Cc1c([18F])cccc1[C@H]1COC(N)=N1 [[^18F]TAAR1-2203]
Specific binding in the CNS (TAAR1 [1]; PET imaging and in vitro autoradiography): no specific TAAR1 binding was observed | Tracer uptake in kidney (AUC 0–60 min), blockade vs baseline (TAAR1 [1]; [13]): significant reduction | Tracer uptake in pancreas (AUC 0–60 min), blockade vs baseline (TAAR1 [1]; [13]): significant reduction | Kidney AUC0−60 min in TAAR1 KO vs WT mice (TAAR1 [2]): significant reduction | logD [3]: 1.64 ± 0.01 | Reduction of tracer binding, rat kidney (TAAR1 [4]): greater than 70% | Reduction of tracer binding, rat pancreas (TAAR1 [4]): more than 50% | Intact parent tracer in mouse serum [5]: > 99% | Intact parent tracer in NHP serum [6]: > 99% | Intact parent tracer in rat serum [7]: > 99% | Intact tracer in NHP liver microsomes [8]: > 99% | Stability in formulation [9]: no detectable degradation | Parent tracer fraction in brain [10]: exceeded 80% | Parent tracer fraction in pancreas [10]: exceeded 80% | Parent tracer fraction in plasma [10]: exceeded 80% | Intact tracer in rat liver microsomes [11]: > 98% | Intact parent tracer in human serum [12]: > 99%
